One assay concerns the target T1, ALDH1A1 (Homo sapiens, UniProt P00352).
T1 construct: made in house
T1 sequence (P00352 1-501): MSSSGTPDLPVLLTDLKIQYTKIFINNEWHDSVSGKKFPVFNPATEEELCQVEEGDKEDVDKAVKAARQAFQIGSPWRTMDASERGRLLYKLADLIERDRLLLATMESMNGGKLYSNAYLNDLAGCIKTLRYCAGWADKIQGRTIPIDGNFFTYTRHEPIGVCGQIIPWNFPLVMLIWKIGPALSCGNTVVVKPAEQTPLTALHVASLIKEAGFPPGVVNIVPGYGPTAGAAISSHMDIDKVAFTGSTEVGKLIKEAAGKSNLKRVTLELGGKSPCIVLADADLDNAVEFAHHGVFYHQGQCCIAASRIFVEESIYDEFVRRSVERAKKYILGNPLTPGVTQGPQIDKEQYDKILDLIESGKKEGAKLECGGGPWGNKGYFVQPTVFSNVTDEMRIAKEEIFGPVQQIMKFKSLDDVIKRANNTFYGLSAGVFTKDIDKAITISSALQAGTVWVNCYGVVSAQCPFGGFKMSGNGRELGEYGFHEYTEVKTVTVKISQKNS
Kind of assay: ALDH1A1 aldehyde oxidation (dehydrogenase) activity assay, NADH formation at 340 nm. It is filed as biochemical.

The target of the next assay is T2, ALDH3A1 (Homo sapiens, UniProt P30838).
T2 construct: made in house
T2 sequence (P30838 1-453): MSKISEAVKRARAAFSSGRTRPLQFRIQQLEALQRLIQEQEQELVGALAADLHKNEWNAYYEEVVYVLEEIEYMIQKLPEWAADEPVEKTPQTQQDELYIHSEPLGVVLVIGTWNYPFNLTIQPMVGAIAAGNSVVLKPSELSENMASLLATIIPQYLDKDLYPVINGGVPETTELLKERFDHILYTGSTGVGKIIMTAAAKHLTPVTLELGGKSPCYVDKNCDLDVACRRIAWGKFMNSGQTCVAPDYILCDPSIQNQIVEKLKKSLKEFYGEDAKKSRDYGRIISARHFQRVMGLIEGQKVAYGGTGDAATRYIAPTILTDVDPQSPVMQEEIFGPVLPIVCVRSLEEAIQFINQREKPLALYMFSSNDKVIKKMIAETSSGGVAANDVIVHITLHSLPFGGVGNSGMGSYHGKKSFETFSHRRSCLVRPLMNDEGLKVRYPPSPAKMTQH
Kind of assay: ALDH3A1 benzaldehyde oxidation activity assay. The format is biochemical. The following applies: Table 4; NI/NI(A) at 100 μM compound; read-out: IC50 in μM (SE) ALDH3A1. The procedure:
Hits from the HTS were ordered from ChemDiv to determine if they had any effect on aldehyde oxidation and whether they were selective for ALDH1A1 compared to ALDH2 and ALDH3A1. Dehydrogenase activity of the three isoenzymes were assayed by monitoring the production of NADH at 340 nm (molar extinction coefficient of 6220 M^−1 cm^−1) on a Beckman DU-640 or Cary 300 Bio UV-Vis spectrophotometer for 2 to 3 minutes. For ALDH1A1 and ALDH2, the reaction contained 100-200 nM enzyme, 200 μM NAD^+, 100 μM propionaldehyde, and 1% DMSO in 50 mM Na^+ BES, pH 7.5 at room temperature. For ALDH3A1, the reaction contained 20 nM enzyme, 200 μM NAD^+, 300 μM benzaldehyde, and 1% DMSO in either 100 mM sodium phosphate or 50 mM Na^+ BES at pH 7.5 at room temperature.
For most compounds, 20 μM concentration was used for the selectivity assays. […] Following a 2 minute incubation of enzyme, compound, and NAD^+, the reaction was initiated by adding substrate. […] Data were fit to the four parameter EC50 equation using SigmaPlot (StatSys v12.3).
Dehydrogenase activity of purified recombinant ALDH1A1, ALDH1A2, ALDH1A3, ALDH1B1, ALDH2, and ALDH3A1 was assayed spectrophotometrically by monitoring the formation of NADH at 340 nm (molar extinction coefficient of 6220 M^−1 cm^−1) on a Beckman DU-640 or Cary 300 Bio UV-Vis spectrophotometer. Characterization of ALDH1A1 WT and ALDH1A1 G458N were performed by co-varying acetaldehyde and NAD^+ concentrations in reactions containing 150-300 nM enzyme, 50-500 μM or 20-200 μM acetaldehyde, and 50-500 μM NAD^+ in 50 mM sodium BES, pH 7.5 at 25° C. Reactions were initiated by adding enzyme. Selectivity of compounds for dehydrogenase activity of ALDH1A1, ALDH1A2, ALDH1A3, ALDH1B1 and ALDH2 were measured in a solution containing 100-200 nM enzyme, 200 μM NAD^+, 1% DMSO, and 100 μM propionaldehyde (non-saturating for all enzymes tested, except ALDH2) in 50 mM sodium BES. ALDH3A1 activity was measured under the following conditions: 25 nM enzyme, 200 μM NAD^+, 1% DMSO, and 300 μM benzaldehyde (˜KM) in either 100 mM sodium phosphate buffer, pH 7.5 or 50 mM sodium BES, pH 7.5. All assays were performed at 25° C. and were initiated by the addition of the aldehyde substrate following a 2 minute pre-incubation with compound and cofactor. Selectivity was initially tested using 20 μM compound, with ALDH1A1-selective modulators further tested using 100 μM compound. […] After a 2 minute pre-incubation with compound and NAD^+, all reactions were initiated by the addition of propionaldehyde. Data were fit to the four parameter EC50 equation using SigmaPlot (StatSys v12.3). The values represent the average of three independent experiments (each n=3). The mode of inhibition was determined via steady-state kinetics by co-varying inhibitor and substrate concentrations at fixed concentration of the second substrate. All reactions contained 100-150 nM ALDH1A1 and 1% DMSO in 50 mM sodium BES, pH 7.5 at 25° C. […] All data were fit to competitive, noncompetitive, uncompetitive, and mixed inhibition models using both single substrate-single inhibitor or tight binding inhibition programs in SigmaPlot (StatSys v12.3). The appropriate model was selected through analysis of goodness-of-fit and the residuals of those fits. The values represent the average of three independent experiments (each n=3) using at least two protein preps.
ALDH1A1, ALDH1A2, ALDH1A3, ALDH2, and ALDH3A1 were produced and purified as previously described. A highthroughput screen (HTS) of 64,000 compounds from the ChemDiv Corp. was performed to identify activators and inhibitors of ALDH1A1. The hydrolysis of para-nitrophenylacetate was used as a measure ALDH1A1 activity (see SM). Selectivity for closely related orthologs was tested at 20 and 100 μM using purified recombinant human ALDH1A1, ALDH1A2, ALDH1A3, ALDH2, and ALDH3A1. […]

A further assay has as its target T3, ALDH1A2 (Homo sapiens, UniProt O94788).
T3 sequence (O94788 1-518): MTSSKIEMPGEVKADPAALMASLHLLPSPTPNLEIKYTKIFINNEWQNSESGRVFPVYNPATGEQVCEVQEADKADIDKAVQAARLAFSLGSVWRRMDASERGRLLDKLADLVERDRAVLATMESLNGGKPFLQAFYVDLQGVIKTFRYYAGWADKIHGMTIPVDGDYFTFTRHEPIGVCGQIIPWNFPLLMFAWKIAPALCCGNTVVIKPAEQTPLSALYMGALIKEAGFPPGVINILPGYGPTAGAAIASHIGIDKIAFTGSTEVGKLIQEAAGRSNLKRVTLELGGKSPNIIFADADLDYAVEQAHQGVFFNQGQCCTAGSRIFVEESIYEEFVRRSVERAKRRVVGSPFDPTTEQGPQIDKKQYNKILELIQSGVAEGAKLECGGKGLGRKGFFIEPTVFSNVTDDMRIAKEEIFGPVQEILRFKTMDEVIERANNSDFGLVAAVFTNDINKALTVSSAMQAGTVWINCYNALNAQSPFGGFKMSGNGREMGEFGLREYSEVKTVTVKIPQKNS
Kind of assay: biochemical. The note with it: Table 4; NI/NI(A) at 100 μM compound; read-out: IC50 in μM (SE) ALDH1A2. It is filed as biochemical.

In a further assay the test system is IGROV1 cells. Kind of assay: Spheroid formation under low attachment culture conditions. The format is cell-based, human. The following applies: 50 μM, 7 days, low attachment. How it is done: Ovarian cancer cell lines or primary cells were seeded at a concentration of 25,000 cells/ml in Mammocult complete medium (StemCell Technologies) and ultra-low attachment plates (Corning, Corning, N.Y.). Spheroids were trypsinized every 7 days and re-plated to generate successive generations. To observe spheroid morphology, A2780, SKOV3, IGROV1, and primary cells were cultured in a rotating bioreactor (Synthecon, Houston, Tex.) until […] compact spheroids were visible (10-30 days). They were harvested, preserved with Histochoice MB Tissue Fixative (Amresco, Solon, Ohio) for 1 hour, and embedded in Immuno-bed resin (Polysciences, Warrington, Pa.). Two micron thick sections were cut on an ultramicrotome and stained with 0.1% methylene blue/0.15% basic fuchsin in 50% methanol.
Cell viability was measured by the trypan blue (ThermoScientific) exclusion test. Cell proliferation was quantified by the MTT assay. Spheroids were counted after centrifugation at 300×g for 5 minutes. All assays were performed in four replicates. Data are presented as means±SEM.

The mark [1] stands for this setting: 100 μM propionaldehyde, 200 μM NAD+, mean/SEM of three independent assays, read-out: IC50 values with ALDH1A1 for compounds that inhibit dehydrogenase activity.
Where [2] appears, read: list of inhibitors in summary and description, read-out: IC50 with the listed inhibitors of ALDH1A1 activity.

From US20150306108A1, “COMPOSITIONS OF ALDH1A1 INHIBITORS AND METHODS OF USE IN TREATING CANCER” (Indiana University Research & Technology Corporation, priority 2014, published 2015) come the findings set out here.

Like-named read-outs stand apart in the source and are kept apart here.

Consider `Cc1ccc(-c2nnc(N3CCN(C)CC3)c3ccccc23)cc1C` [CM001], for which the IC50 at ALDH1A1 (setting [1]) and at ALDH1A1 (setting [2]) was 1.1 µM throughout.
Consider `CCOc1cc(S(=O)(=O)NCc2cccnc2)c(C)cc1C` [CM009], for which the IC50 on ALDH1A1 (setting [1]) and at ALDH1A1 (setting [2]) was 5.3 µM each time.
Regarding `C=CCc1cccc(CNc2nc3ccccc3n2CCC)c1O` [CM010], the half-inhibitory concentration (IC50) at ALDH1A1 (setting [1]) and on ALDH1A1 (setting [2]) was 1.3 µM each time.
`CCC(C)NC(=O)C1(O)c2cc(Br)ccc2NC(O)N1c1ccc(Cl)cc1` (stereo not drawn) [CM020]: the IC50 on ALDH1A1 (setting [1]) and on ALDH1A1 (setting [2]) was 0.45 µM throughout.
Consider `Cc1ccc(Cn2c(CN3CCN(c4ccccc4)CC3)nc3c2c(=O)n(C)c(=O)n3C)cc1` [CM025], for which the concentration for half-maximal inhibition (IC50) at ALDH3A1 was over 100 µM.
With `CCN1CCN(Cc2nc3c(c(=O)n(C)c(=O)n3C)n2CC(=O)c2ccccc2)CC1` [CM027], the IC50 on ALDH1A1 (Table 4, NI/NI(A) at 100 μM compound, * <70% maximum inhibition, read-out: IC50 in μM (SE) ALDH1A1) was determined as 6.1 µM.
Consider `NC(=O)CSc1nc2c(sc3ccccc32)c(=O)n1CCCN1CCCC1` [CM037a], for which the 50% inhibitory concentration (IC50) at ALDH1A1 (setting [1]) was found to be 23 µM.
Take `Cc1nc2ccccc2c2oc(C(=O)N3CCCCC3)cc12` [CM038]: the IC50 at ALDH1A1 (setting [1]) was 0.26 µM; on ALDH1A1 (setting [2]), 0.26 µM; on ALDH1A1 (propionaldehyde oxidation, values in nM, read-out: IC50 with ALDH1A1) it was under 0.3 µM.
Take `COc1ccc(S(=O)(=O)N2N=C(c3cccc(NS(C)(=O)=O)c3)CC2c2ccco2)cc1` (stereo not drawn) [CM045]: the IC50 at ALDH1A1 (setting [1]) and on ALDH1A1 (setting [2]) was 2.5 µM throughout.
For `Cc1cc(C)c(S(=O)(=O)Nc2ccc(O)c(Cl)c2)cc1C` [CM047], the IC50 on ALDH1A1 (setting [1]) and on ALDH1A1 (setting [2]) was 0.31 µM each time.
`CC(C)CCn1c(CN2CCC(C(N)=O)CC2)nc2c1c(=O)n(C)c(=O)n2C` [CM053]: the concentration for half-maximal inhibition (IC50) on ALDH3A1 was over 100 µM.
Consider `Cc1cccc(Cn2c(CN3CCN(C(=O)c4ccco4)CC3)nc3c2c(=O)n(C)c(=O)n3C)c1` [CM055], for which the IC50 at ALDH1A2 and at ALDH3A1 was over 100 µM throughout.
For the molecule `CC(C)CCn1c(CN2CCC(C)CC2)nc2c1c(=O)n(C)c(=O)n2C` [CM057], the IC50 at ALDH3A1 is over 100 µM.
`CN1CCN(C(=O)c2ccc3c(c2)N(Cc2ccccc2)CCS3)CC1` [CM306]: the concentration for half-maximal inhibition (IC50) at ALDH1A1 (setting [1]) and on ALDH1A1 (setting [2]) was 3.5 µM throughout.
For the molecule `Cc1ccc(S(=O)(=O)NCC2CCC(C(=O)NCc3ccco3)CC2)cc1` (stereo not drawn) [CM307], the IC50 at ALDH1A1 (setting [1]) and at ALDH1A1 (setting [2]) was 0.57 µM throughout.
On to `CCN(CC)c1ccc(C=O)cc1` [DEAB, diethylaminobenzaldehyde, reference compound], for which the formation of spheres result in the assay with IGROV1 cells is “completely inhibited”.
